# Data as given in patent US20080234368A9, “Therapeutic compositions and methods of use” (Trustees of Dartmouth College, priority 1998, published 2008).
# Tests used:
# iNOS enzymatic activity = molecular target: T1, iNOS enzymatic activity (Mus musculus, UniProt P29477); experiment: NO production in RAW cells with enzyme synthesis already induced; type: cell-based; settings: added after enzyme synthesis induced; data not shown
# T1 construct: added to RAW cells in which synthesis of these two enzymes has already been induced; endogenous in cells; host or cells: RAW 264.7 mouse macrophage-like cells, enzyme synthesis pre-induced
# Text: These effects of CDDO have been seen in primary mouse macrophages, a mouse macrophage-like tumor cell line (RAW 264.7), and in non-neoplastic human colon fibroblasts. […] Neither iNOS nor COX-2 expression can be detected in these cells until they are stimulated by an inflammatory mediator such as IFN-γ, or LPS. […] The above effects on INOS and COX-2 are also reflected in the cumulative production of their respective enzyme products, NO and PGE2, as measured in primary macrophages (FIG. 14C). […] Likewise, the actions of CDDO are not blocked by the glucocorticoid antagonist, RU-486, which is known to bind to the glucocorticoid receptor (data not shown). In these regards, CDDO is identical to the other oleanolic acid derivatives previously studied (Suh et al., 1998).
# [1] = test system: NO production in primary mouse macrophages; experiment: NO production induced by LPS and IFN-γ in primary mouse macrophages (FIG. 7); type: cell-based
# [2] = test system: MCF-7 breast carcinoma cells; experiment: Suppression of thymidine incorporation, dose-response (FIG. 13); type: cell-based, human; settings: MCF-7 with 17-β-estradiol, 72 h; oleanolic acid statement at concentrations of 1 μM or less
# Protocol: Inhibitors of cell proliferation are known to be useful chemopreventive and chemotherapeutic agents. CDDO was tested against a wide variety of cells derived from highly aggressive leukemias and carcinomas, as well as from non-neoplastic tissues. NRP-152 cells were grown as described in Danielpour et al., 1994. MCF-7 cells were grown in phenol red-free RPMI 1640/10% charcoal-stripped FBS with added 17-β-estradiol (10 μM). Triterpenoids were added at the time of plating, and 72 h later ^3H-thymidine (1 μCi/well) was added for the final 2 h of incubation. Incorporation of thymidine was measured after cells were precipitated with TCA (10%), washed, and solubilized. The symbols used in FIG. 13 are CDDO, ▪; TP-82, ◯; and oleanolic acid; ●.
# [3] = test system: CAPAN-1 pancreatic carcinoma cells; experiment: Inhibition of cell proliferation (3H-thymidine incorporation); type: cell-based, human; settings: CAPAN-1 (Smad4/DPC4 mutation); 3 or 4 days, 3H-thymidine 2 h
# Protocol: (§1) All cells were obtained from ATCC, except as noted. They were grown under standard conditions in either DMEM, DMEM/F 12, or RPMI 1640 media plus 5-10% FBS. CDDO, over the dose range 10^−6 to 10^−10 M, was added to cultures at the time of seeding. Three or 4 days later, cells were treated with ^3H-thymidine for 2 h (12 h in the case of leukemia cells), and then incorporation was measured. “ER” means estrogen receptor.
# (§2) ^aThese cells all have […] mutations (Schutte et al. 1996).
# [4] = test system: MDA-MB-468 ER negative breast carcinoma cells; experiment: as above; type: cell-based, human; settings: MDA-MB-468 (Smad4/DPC4 mutation); 3 or 4 days, 3H-thymidine 2 h
# Protocol: as §1, §2
# [5] = test system: SW626 ovarian carcinoma cells; experiment: as above; type: cell-based, human; settings: SW626 (Smad4/DPC4 mutation); 3 or 4 days, 3H-thymidine 2 h
# Protocol: as §1, §2
# [6] = test system: AsPc-1 pancreatic carcinoma cells; experiment: as above; type: cell-based, human; settings: AsPc-1 (Smad4/DPC4 mutation); 3 or 4 days, 3H-thymidine 2 h
# Protocol: as §1, §2
# [7] = test system: PC12 pheochromocytoma cells; experiment: Neuronal differentiation / neurite outgrowth, image analysis; type: cell-based, rat
# Protocol: CDDO induces monocytic differentiation in the poorly differentiated LCDB acute myelogenous leukemia cell line, derived from a chemotherapy-resistant patient at the NCI Pediatric Oncology Branch. FIG. 11 illustrates LCDB cells seeded in RPMI 1640/2% FBS, either alone (11A), with 2.5 ng/ml TGF-β1 (11B), with 10^−8 M CDDO (11C), or with both TGF-β1 and CDDO (11D). After 48 h, cytospin slide preparations were made and stained for α-naphthyl acetate esterase activity (kit from Sigma). PC12 cells were cultured for 5 days in gridded dishes in DMEM/10% FBS and 5% horse serum (Smith et al., 1997), either alone (11E), with 100 ng/ml 7S NGF (11F), with 10^−6 M CDDO (11G), or with both NGF and CDDO (11H). […] Methods for quantitative image analysis of size of cells and neurites have been described (De 1a Torre et al., 1997). Control cells in FIG. 11E are approximately 10 μm in diameter. 3T3-L1 cells were grown to confluency in DMEM/5% calf serum, and then treated once with CDDO in DMEM/10% FBS (FIG. 12A) or with CDDO and/or LG100268 in DMEM/10% FBS (FIG. 12B). Every two days thereafter, medium was changed to DMEM/10% FBS, without added CDD0 or LG100268. Cells were harvested on day 8 (FIG. 12A) or day 6 (FIG. 12B), and GPDH was measured in lysates, using a standard assay for consumption of NADH at 340 nm (Wise and Green, 1979).
# The rat pheochromocytoma cell line, PC12, has been widely used to study neuronal development and differentiation. Treatment of these tumor cells with NGF is known to induce a neuronal phenotype, with extensive neurite outgrowth (Greene and Rischler, 1976; Guroff 1985). CDDO markedly potentiates these effects of NGF. FIGS. 11E and F show the induction of neurite outgrowth by NGF (100 ng/ml). […] When used in combination with NGF, CDDO (FIG. 11H) almost doubled the number of primary neurites/cell (from 1.2±0.2 S.E.M. to 2.1±0.1, p<0.001), and caused a greater than 3-fold increase in length of neurites (from 28±6 to 99±9 microns, p<0.001), and a 5-fold increase in neurite branching/cell (from 0.23±0.06 to 1.13±0.08, p<0.001). Thus, CDDO enhances neuronal differentiation of PC12 cells by increasing cell size, as well as the extent and complexity of neurite arborization.
# [8] = CDDO 10^−6 M in combination with NGF 100 ng/ml, 5 days
# T1 sequence (P29477 whole entry): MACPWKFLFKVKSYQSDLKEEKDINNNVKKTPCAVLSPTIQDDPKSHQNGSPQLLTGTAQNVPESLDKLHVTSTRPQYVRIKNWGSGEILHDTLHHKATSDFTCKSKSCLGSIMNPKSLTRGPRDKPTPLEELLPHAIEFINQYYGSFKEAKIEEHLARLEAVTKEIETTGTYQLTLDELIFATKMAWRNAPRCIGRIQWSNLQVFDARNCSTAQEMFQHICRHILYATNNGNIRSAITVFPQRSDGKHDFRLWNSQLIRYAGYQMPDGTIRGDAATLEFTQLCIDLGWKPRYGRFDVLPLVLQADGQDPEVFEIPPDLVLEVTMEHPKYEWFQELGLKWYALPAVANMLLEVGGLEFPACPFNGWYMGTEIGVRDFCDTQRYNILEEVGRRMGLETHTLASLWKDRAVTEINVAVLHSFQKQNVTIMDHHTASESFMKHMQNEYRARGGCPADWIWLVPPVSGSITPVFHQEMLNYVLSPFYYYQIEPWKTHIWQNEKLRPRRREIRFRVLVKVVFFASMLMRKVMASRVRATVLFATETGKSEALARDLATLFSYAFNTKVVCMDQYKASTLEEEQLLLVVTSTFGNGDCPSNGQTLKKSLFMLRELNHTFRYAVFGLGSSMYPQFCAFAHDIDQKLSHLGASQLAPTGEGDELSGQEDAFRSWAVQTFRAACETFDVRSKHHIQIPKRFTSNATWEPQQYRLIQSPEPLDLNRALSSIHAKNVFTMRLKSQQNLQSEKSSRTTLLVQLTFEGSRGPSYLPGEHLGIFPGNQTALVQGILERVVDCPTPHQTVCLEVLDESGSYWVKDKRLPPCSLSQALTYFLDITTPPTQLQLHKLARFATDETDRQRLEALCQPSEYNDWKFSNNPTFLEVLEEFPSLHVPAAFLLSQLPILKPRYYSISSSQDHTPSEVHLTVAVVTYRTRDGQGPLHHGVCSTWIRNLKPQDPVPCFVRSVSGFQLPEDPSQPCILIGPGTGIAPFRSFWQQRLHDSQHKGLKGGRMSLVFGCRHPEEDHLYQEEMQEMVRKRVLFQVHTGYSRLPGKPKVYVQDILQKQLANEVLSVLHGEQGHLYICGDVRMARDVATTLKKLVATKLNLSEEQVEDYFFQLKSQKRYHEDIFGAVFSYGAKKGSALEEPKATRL
compound,measurement,setting,value
"CC1(C)CC[C@]2(C(=O)O)CC[C@]3(C)[C@H](C(=O)C=C4[C@@]5(C)C=C(C#N)C(=O)C(C)(C)[C@@H]5CC[C@]43C)[C@@H]2C1 [Compound 6, 2-cyano-3,12-dioxoolean-1,9-dien-28-oic acid]",immediate effect on NO production (direct inhibition of iNOS),iNOS enzymatic activity,no immediate effect
same,activity on LPS and IFN-γ induced NO production compared with dexamethasone (FIG. 7),[1],favorable to that of dexamethasone
same,suppressing thymidine incorporation,[2],highly active in the nanomolar range
same,IC50,[3],300 nM
same,IC50,[4],200 nM
same,IC50,[5],300 nM
same,IC50,[6],100 nM
same,cell morphology,"[7]; CDDO 10^−6 M by itself, 5 days","larger, flatter morphology"
same,neurite formation,"[7]; CDDO 10^−6 M by itself, 5 days",does not induce neurite formation
same,length of neurites,[7]; [8],99±9 microns
same,neurite branching/cell,[7]; [8],1.13±0.08
same,number of primary neurites/cell,"[7]; CDDO 10^−6 M in combination with NGF 100 ng/ml, 5 days, ± S.E.M.",2.1±0.1
same,increase in length of neurites over NGF alone,[7]; CDDO in combination with NGF,greater than 3 fold
same,increase in neurite branching/cell over NGF alone,[7]; CDDO in combination with NGF,5 fold
